Test results reported in patent US8884027B2, “Melampomagnolide B derivatives as antileukemic and cytotoxic agents” (University of Rochester, priority 2010, dated 2014).
Entries after “also recorded” stand apart in the source; their conditions may differ.

What was measured:
[1] = cited from earlier work
[2] = cited from earlier work; remark: listed apart in the source
[3] = rats and dogs, cited from earlier work
primary leukemia cells = experiment: Cell viability assay (Annexin V/7-AAD flow cytometry); type: cell-based, human; details: for concentration achieving efficient induction of cell death: 24 h exposure, FIG. 3B; for anti-leukemia activity compared to PTL (in words): primary AML specimens, FIG. 2
Method: (§1) Primary leukemia cells were treated with varying concentrations of 1, 3 or 4 for six hours, followed by lysis and analysis by immunoblot. Inhibition of NF-κB activity was assessed by measuring phosphorylation of the NF-κB p65 subunit at Ser-536. […] To further evaluate the cytoxicity of 3 and 4, cell viability was measured following 24 h exposure to each compound. […] To achieve a similar degree of cell death with 4, treatment at 20-30 μM was required, in good agreement with the NF-κB phosphorylation analysis shown in FIG. 3A. Thus, while 3 and 4 retain the biological properties of 1, the activity of 4 is reduced approximately 2-fold. The minor loss in activity might be attributed to steric hindrance resulting from the addition of the bulky biotin moiety.
Cells treated with different concentrations of 1, 3 or 4 were washed with cold PBS and resuspended in 200 μL of Annexin binding buffer (10 mM HEPES/NaOH pH 7.4; 140 mM NaCl; 2.5 mM CaCl2). Annexin-V and 7-amino-actinomycin (7-AAD) were added and the tubes were incubated at ambient temperature in the dark for 15 mins. Cells were then diluted with 200 μL of Annexin binding buffer and analyzed immediately by flow cytometry. Viable cells were scored as Annexin V negative/7-AAD negative. Percent viability data provided are normalized to untreated control specimens.

Water solubility = type: physicochemical
Method: Detailed SAR studies of PTL were performed to better understand the basic chemistry required to mediate anti-leukemia activity. […] In biological systems, the consequences of this reactivity are most prevalent for free thiols and cysteine residues. […] A series of PTL analogs was previously prepared with the goal of creating a more therapeutically useful derivative (Neelakantan et al., 2009). […] In addition, DMAPT retains virtually identical anti-leukemia properties as PTL, including the ability to selectively target LSCs. […] Based on these findings, DMAPT has advanced to phase 1 clinical trials, and is currently being evaluated in patients with advanced hematologic malignancies. DMAPT and certain PTL analogs are disclosed in U.S. Pat. Nos. 7,312,242 and 7,678,904, each of which is incorporated herein by reference.
The predicted poor oral bioavailability likely results from low aqueous solubility, since this causes a low dissolution-rate, which is often the rate-limit step during oral drug absorption. Fleisher et al., Improved oral drug delivery: solubility limitations overcome by the use of prodrugs. Adv Drug Deliv Rev, 19:115-130, 1996; Taylor, Improved passive oral drug delivery via prodrugs. Adv Drug Deliv Rev, 19:131-148, 1996. Furthermore, low water solubility can itself be a source of toxicity, due to precipitation of the drug, causing crystalluria. […]

[4] = system: NF-κB p65 subunit at Ser-536; experiment: Inhibition of NF-κB activity: immunoblot of phosphorylated p65 in primary leukemia cells; type: cell-based, human; details: primary leukemia cells treated six hours, FIG. 3A
Method: as §1
Cell lysates or pull-down products were diluted in 5×SDS-PAGE sample buffer (10% w/v SDS, 10 mM DDT, 20% glycerol, 0.2M Tris-HCl, pH 6.8, 0.05% w/v bromophenol blue), and run on 8-10% SDSPAGE gels. Protein gels were then transferred to PVDF membrane and blocked with 5% milk in 0.1% TBST (20 mM Tris-HCl pH 7.5, 137 mM NaCl, 0.1% Tween 20), followed by incubation with antibodies against p-p65(ser 536) (Cell Signaling), IKK-β (Cell Signaling), p65 (Santa Cruz), β-actin (Sigma), or SA-HRP probe (Thermo).

NF-kB p65 subunit = target: T1, NF-kB p65 subunit (Homo sapiens, UniProt Q04206); experiment: Streptavidin beads pull-down assay with immunoblot; type: binding; details: 2 h pretreatment before 4; FIG. 5 lane 5
T1 construct: endogenous in cells; host or cells: primary leukemia (AML) cells
Method: Primary human cells were treated with 20 uM 4 for 6 h, followed by lysis and immunoblot analysis using a streptavidin probe. […] Therefore, we tested whether 4 would also bind this protein. […] Cells were then lysed and immuno-precipitated by streptavidin beads. Pulldown products were analyzed by immunoblot to identify specific proteins.
Treated cells were washed three times in cold PBS and lysed in Buffer F (10 mM Tris-HCl pH 7.5, 50 mM NaCl, 30 mM Sodium pyrophosphate, 50 mM NaF, 5 μM ZnCl2, 1% Triton X-100) with freshly added proteinase inhibitors (1 mM PMSF, 1×PIC, 0.1 mM Na3OV4). Lysates were cleared by 10 mins of 12,000 rpm spinning at 4° C. and the supernatant was incubated with SA beads for 2 hours on an end-to-end rotor at 4° C. Beads were then washed sequentially with 1×PBS, high salt wash buffer (500 mM NaCl in 0.1 M pH 5.0 NaOAc), low pH wash buffer (0.1 M pH 2.8 glycine-HCl), and one last time in 1×PBS. After the wash steps, the SA beads were boiled for 10 mins in 2×SDS-PAGE sample buffer to elute down all pull-down products.
Cell lysates or pull-down products were diluted in 5×SDS-PAGE sample buffer (10% w/v SDS, 10 mM DDT, 20% glycerol, 0.2M Tris-HCl, pH 6.8, 0.05% w/v bromophenol blue), and run on 8-10% SDSPAGE gels. […]

glutathione = experiment: Metabolomic studies of glutathione; type: cell-based
Source text: For example, both thioredoxin and glutathione-S-transferase are targets of MMB. […] Furthermore, MMB also directly binds the major components of the HSP family (HSP60, 70, and 90). […] If true, then MMB could also impair the function of one or more HSPs. Taken together with the genomic data, these findings indicate a unique mechanism of action, where agents of this class act by inducing multiple stress response mechanisms and simultaneously impairing those very same mechanisms from functioning properly.

IKK-β = target: T2, IKK-β (Homo sapiens, UniProt O14920); experiment: Streptavidin beads pull-down assay with immunoblot; type: binding
T2 construct: endogenous in cells; host or cells: primary leukemia (AML) cells
T2 sequence (O14920 1-756): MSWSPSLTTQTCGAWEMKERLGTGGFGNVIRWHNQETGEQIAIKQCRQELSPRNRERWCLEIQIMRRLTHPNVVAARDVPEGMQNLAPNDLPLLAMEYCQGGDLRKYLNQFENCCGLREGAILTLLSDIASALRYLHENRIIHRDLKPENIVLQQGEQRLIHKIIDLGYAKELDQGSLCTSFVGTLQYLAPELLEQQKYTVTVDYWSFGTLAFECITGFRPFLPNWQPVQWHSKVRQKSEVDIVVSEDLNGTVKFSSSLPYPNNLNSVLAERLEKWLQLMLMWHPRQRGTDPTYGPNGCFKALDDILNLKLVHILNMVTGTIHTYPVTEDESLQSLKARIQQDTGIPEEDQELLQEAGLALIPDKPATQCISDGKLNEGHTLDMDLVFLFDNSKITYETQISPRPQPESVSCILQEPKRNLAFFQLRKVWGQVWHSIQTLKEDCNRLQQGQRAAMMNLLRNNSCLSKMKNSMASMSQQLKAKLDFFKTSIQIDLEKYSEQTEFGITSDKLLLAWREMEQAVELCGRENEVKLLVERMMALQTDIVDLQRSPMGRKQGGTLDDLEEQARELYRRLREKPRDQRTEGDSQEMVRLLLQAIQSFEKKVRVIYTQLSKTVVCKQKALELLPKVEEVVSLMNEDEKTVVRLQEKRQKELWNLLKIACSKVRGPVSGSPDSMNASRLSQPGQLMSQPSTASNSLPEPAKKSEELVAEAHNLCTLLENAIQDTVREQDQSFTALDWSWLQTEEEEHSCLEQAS
Method: Subsequent studies employed 4 as a reagent to identify potential leukemic proteins modified by MMB. Primary human cells were treated with 20 uM 4 for 6 h, followed by lysis and immunoblot analysis using a streptavidin probe. […] Thus, while the chemistry of 4 should be essentially the same in any cell type, there must be intrinsic differences between normal and leukemic cells that lead to the interaction with unique targets. We propose that this differential binding contributes to the leukemia-specific cell death previously described for 1. To further validate the utility of 4 for analysis of protein targets, we performed biochemical pulldown studies. […] Kwok et al. Chem. Bio., 2001, 8, 759. Therefore, we tested whether 4 would also bind this protein. In FIG. 5, primary leukemia cells were pretreated for 2 h with 1 (lanes 2, 5) or biotin control (b.c.) (lanes 3, 6), prior to a 4 h incubation with 4. Cells were then lysed and immuno-precipitated by streptavidin beads. Pulldown products were analyzed by immunoblot to identify specific proteins. […] Kwok et al., Chem. Bio., 2001, 8, 759; Hehner et al., J. Immunol. 1999, 163, 5617.
Treated cells were washed three times in cold PBS and lysed in Buffer F (10 mM Tris-HCl pH 7.5, 50 mM NaCl, 30 mM Sodium pyrophosphate, 50 mM NaF, 5 μM ZnCl2, 1% Triton X-100) with freshly added proteinase inhibitors (1 mM PMSF, 1×PIC, 0.1 mM Na3OV4). […]

T1 sequence (Q04206 whole entry): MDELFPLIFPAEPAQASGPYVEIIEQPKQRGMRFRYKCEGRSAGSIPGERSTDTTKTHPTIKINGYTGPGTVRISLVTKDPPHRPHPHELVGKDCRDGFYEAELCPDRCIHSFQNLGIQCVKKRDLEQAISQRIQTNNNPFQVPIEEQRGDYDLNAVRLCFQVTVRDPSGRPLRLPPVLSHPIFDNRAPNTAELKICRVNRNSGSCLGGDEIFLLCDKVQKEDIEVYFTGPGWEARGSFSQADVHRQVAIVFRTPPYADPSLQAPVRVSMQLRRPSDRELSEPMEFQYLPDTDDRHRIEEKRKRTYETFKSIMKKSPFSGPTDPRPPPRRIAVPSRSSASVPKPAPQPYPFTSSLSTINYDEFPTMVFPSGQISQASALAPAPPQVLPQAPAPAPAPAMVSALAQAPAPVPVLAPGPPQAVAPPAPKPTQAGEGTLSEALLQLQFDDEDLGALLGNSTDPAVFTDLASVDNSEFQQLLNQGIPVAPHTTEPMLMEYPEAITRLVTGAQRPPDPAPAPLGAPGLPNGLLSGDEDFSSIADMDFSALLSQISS

C/C1=C\CC[C@@]2(C)O[C@@H]2[C@H]2OC(=O)[C@H](CN(C)C)[C@@H]2CC1 [DMAPT, dimethylaminoparthenolide]
water solubility relative to PTL ([1]; formulated as a fumarate salt): ~1000 fold
in vivo half-life [2]: approximately two
oral bioavailability [3]: 70%
tolerability ([3]; doses resulting in serum concentrations of up to 10-fold excess of the biologically active concentration): well tolerated

C=C1C(=O)O[C@@H]2[C@H]3O[C@]3(C)CC/C=C(\CO)CC[C@@H]12 [MMB, Melampomagnolide B]
concentration achieving efficient induction of cell death (primary leukemia cells): 7.5 µM
anti-leukemia activity compared to PTL (in words) (primary leukemia cells): indistinguishable from PTL; also recorded: identical anti-leukemia activity compared to PTL
anti-leukemia activity compared to PTL (in words) (primary leukemia cells; listed as 3): potency and selectivity similar to 1
solubility in aqueous media (in words) (Water solubility): sparingly soluble
concentration at which a significant loss of phosphorylation of NF-κB p65 is observed [4]: 7.5 µM

C=C1C(=O)O[C@H]2[C@H]1CC/C(C)=C/CC[C@@]1(C)O[C@@H]21 [PTL, parthenolide]
water solubility (in words) [1]: relatively water-insoluble
effect of preincubation on binding of p65 to 4 (NF-kB p65 subunit): potently reduced binding
reduction of glutathione (glutathione): 11.2 fold
effect of preincubation on binding of IKK-β to 4 (IKK-β; 2 h pretreatment before 4, FIG. 5 lane 5): potently reduced binding

C=C1C(=O)O[C@@H]2[C@H]3O[C@]3(C)CC/C=C(\COC(=O)CCCCCCCCCCCNC(=O)CCCC[C@@H]3SC[C@@H]4NC(=O)N[C@@H]43)CC[C@@H]12 [Prodrug 4, 14-[N-(Biotinyl)-12-aminododecanoxy]melampomagnolide B]
concentration achieving efficient induction of cell death (primary leukemia cells): 20 to 30 µM
reduction of activity relative to 1 (primary leukemia cells; from viability and NF-κB phosphorylation analysis): approximately 2 fold
concentration at which a significant loss of phosphorylation of NF-κB p65 is observed [4]: 20 µM
binding of IKK-β in pull-down (IKK-β; primary leukemia cells, 4 h incubation with 4, FIG. 5): one product identified was IKK-β
